Earlier results as cited in US20250367122A1, “PHARMACEUTICAL COMPOSITION CONTAINING 1-{2-[(3S,4R)-1-{[(3R,4R)-1-CYCLOPENTYL-3-FLUORO-4-(4-METHOXYPHENYL)PYRROLIDIN-3-YL]CARBONYL}-4-(METHOXYMETHYL)PYRROLIDIN-3-YL]-5-(TRIFLUOROMETHYL)PHENYL}PIPERIDINE-4-CARBOXYLIC ACID OR PHARMACEUTICALLY ACCEPTABLE SALT OR CO-CRYSTAL THEREOF” (MITSUBISHI TANABE PHARMA CORPORATION, priority 2022, published 2025).

System: melanocortin receptor (MCR)
Settings: as described in Patent Document 1

Compound: COC[C@H]1CN(C(=O)[C@]2(F)CN(C3CCCC3)C[C@H]2c2ccc(OC)cc2)C[C@@H]1c1ccc(C(F)(F)F)cc1N1CCC(C(=O)O)CC1 [Compound A, 1-{2-[(3S,4R)-1-{[(3R,4R)-1-cyclopentyl-3-fluoro-4-(4-methoxyphenyl)pyrrolidin-3-yl]carbonyl}-4-(methoxymethyl)pyrrolidin-3-yl]-5-(trifluoromethyl)phenyl}piperidine-4-carboxylic acid]
- MCR activation effect: excellent
